According to patent US10294202B2, “Pyrrolidinones as herbicides” (FMC Corporation, priority 2013, dated 2019):

Tests used:
[1] = tested on: barnyardgrass; test: Test A pre-/postemergence herbicide test; assay type: in vivo, Echinochloa crus-galli
Summary of the method: (§1)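 Formulated compound (non-phytotoxic solvent, surfactant) sprayed pre- onto soil of seeded loam/sand pots or post- onto seedlings at 1–2 leaves; ~10 d greenhouse; 0–100 visual control rating versus untreated.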

[2] = tested on: giant foxtail; test: Test A pre-/postemergence herbicide test; assay type: in vivo, Setaria faberii
Summary of the method: as §1

[3] = tested on: pigweed; test: Test A pre-/postemergence herbicide test; assay type: in vivo, Amaranthus retroflexus
Summary of the method: as §1

[4] = tested on: corn; test: Test A pre-/postemergence herbicide test; assay type: in vivo, Zea mays; details: Postemergence
Summary of the method: as §1

[5] = tested on: rice; test: Test B flooded paddy test; assay type: in vivo, Oryza sativa; details: 500 g ai/ha, Flood; scale of 0 to 100 where 0 is no effect and 100 is complete control
Summary of the method: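 In-water application to pots flooded 3 cm deep, plants at 2-leaf stage. Held in greenhouse 13–15 days at constant flood depth. Scored 0–100 by eye against controls.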

[6] = tested on: blackgrass; test: Test C pre-/postemergence herbicide test; assay type: in vivo, Alopecurus myosuroides
Summary of the method: (§2)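 Compound solutions contained surfactant in a non-phytotoxic solvent. These were sprayed onto pots of loam/sand sown with seeds, and onto young plants (2 to 18 cm, 1- to 4-leaf) in sphagnum peat–vermiculite mix. Visual injury scores (0 none, 100 complete control) were recorded after 13 to 15 days.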

[7] = tested on: foxtail, giant; test: Test C pre-/postemergence herbicide test; assay type: in vivo, Setaria faberii
Summary of the method: as §2

[8] = tested on: johnsongrass; test: Test C pre-/postemergence herbicide test; assay type: in vivo, Sorghum halepense
Summary of the method: as §2

[9] = tested on: nutsedge, yellow; test: Test C pre-/postemergence herbicide test; assay type: in vivo, Cyperus esculentus
Summary of the method: as §2

[10] = tested on: oilseed rape; test: Test C pre-/postemergence herbicide test; assay type: in vivo, Brassica napus
Summary of the method: as §2

[11] = tested on: velvetleaf; test: Test C pre-/postemergence herbicide test; assay type: in vivo, Abutilon theophrasti
Summary of the method: as §2

[12] = Postemergence, 125 g ai/ha, visual rating on 0 to 100 scale (0 no effect, 100 complete control), approx. 10 days
[13] = Postemergence, 500 g ai/ha, 0 to 100 scale (0 no effect, 100 complete control)
[14] = Preemergence, 125 g ai/ha, 0 to 100 scale where 0 is no effect and 100 is complete control
[15] = Preemergence, 500 g ai/ha, visual rating on 0 to 100 scale (0 no effect, 100 complete control)
[16] = 125 g ai/ha, visual rating on 0 to 100 scale (0 no effect, 100 complete control), approx. 10 days
[17] = 500 g ai/ha, 0 to 100 scale (0 no effect, 100 complete control)
[18] = Postemergence, 16 g ai/ha, scale 0 to 100 (0 no effect, 100 complete control)
[19] = Postemergence, 31 g ai/ha, scale 0 to 100 (0 no effect, 100 complete control)
[20] = Postemergence, 62 g ai/ha, scale 0 (no effect) to 100 (complete control)
[21] = Postemergence, 125 g ai/ha, scale 0 to 100 (0 no effect, 100 complete control)
[22] = Preemergence, 31 g ai/ha, scale 0 to 100, 0 is no effect and 100 is complete control
[23] = Preemergence, 62 g ai/ha, scale 0 to 100 (0 no effect, 100 complete control)
[24] = Preemergence, 125 g ai/ha, scale 0 to 100 (0 no effect, 100 complete control)
[25] = Preemergence, 16 g ai/ha, scale 0 to 100
[26] = Preemergence, 125 g ai/ha, scale 0 to 100

CN1CC(c2ccc(C(F)(F)F)cc2)C(C(=O)Nc2ccccc2F)C1=O (centres unmarked) [Compound 304]
25: Nutsedge, Yellow plant response rating [9, 23]
45: Plant response rating, Foxtail, Giant [7, 21]
90: Plant response rating, Barnyardgrass [1, 13] | Plant response rating, Barnyardgrass [1, 14] | Barnyardgrass plant response rating [1, 15] | Plant response rating, Foxtail, Giant [2, 14] | Foxtail, Giant plant response rating [2, 15] | Foxtail, Giant plant response rating [7, 22] | Plant response rating, Foxtail, Giant [7, 25]
15: Plant response rating, Velvetleaf [11, 20] | Plant response rating, Velvetleaf [11, 21]
40: Plant response rating, Pigweed [3, 12]
55: Oilseed Rape plant response rating [10, 23] | Plant response rating, Oilseed Rape [10, 24]
5: Plant response rating, Velvetleaf [11, 19]
80: Plant response rating, Barnyardgrass [1, 12] | Plant response rating, Foxtail, Giant [2, 12] | Plant response rating, Foxtail, Giant [2, 13] | Pigweed plant response rating [3, 15]
10: Plant response rating, Foxtail, Giant [7, 20]
70: Plant response rating, Pigweed [3, 14] | Plant response rating, Corn [4, 17] | Plant response rating, Blackgrass [6, 24]
0: Plant response rating, Blackgrass [6, 18] | Plant response rating, Blackgrass [6, 19] | Plant response rating, Blackgrass [6, 20] | Plant response rating, Blackgrass [6, 21] | Plant response rating, Foxtail, Giant [7, 18] | Plant response rating, Foxtail, Giant [7, 19] | Plant response rating, Johnsongrass [8, 18] | Plant response rating, Johnsongrass [8, 19] | Plant response rating, Johnsongrass [8, 20] | Plant response rating, Johnsongrass [8, 21] | Johnsongrass plant response rating [8, 22] | Plant response rating, Johnsongrass [8, 25] | Plant response rating, Nutsedge, Yellow [9, 18] | Plant response rating, Nutsedge, Yellow [9, 19] | Plant response rating, Nutsedge, Yellow [9, 20] | Plant response rating, Nutsedge, Yellow [9, 21] | Nutsedge, Yellow plant response rating [9, 22] | Plant response rating, Nutsedge, Yellow [9, 24] | Plant response rating, Nutsedge, Yellow [9, 25] | Plant response rating, Oilseed Rape [10, 18] | Plant response rating, Oilseed Rape [10, 19] | Plant response rating, Oilseed Rape [10, 20] | Plant response rating, Oilseed Rape [10, 21] | Plant response rating, Velvetleaf [11, 18] | Plant response rating, Velvetleaf [11, 25]
95: Foxtail, Giant plant response rating [7, 23] | Plant response rating, Foxtail, Giant [7, 24]
30: Plant response rating, Corn [4, 16] | Plant response rating, Blackgrass [6, 25] | Plant response rating, Oilseed Rape [10, 25]
35: Plant response rating, Rice [5] | Blackgrass plant response rating [6, 22] | Johnsongrass plant response rating [8, 23] | Plant response rating, Johnsongrass [8, 24] | Velvetleaf plant response rating [11, 23]
50: Oilseed Rape plant response rating [10, 22] | Plant response rating, Velvetleaf [11, 24]
60: Plant response rating, Pigweed [3, 13] | Blackgrass plant response rating [6, 23]
20: Velvetleaf plant response rating [11, 22]

O=C1NCC(c2cccc(Br)c2)C1C(=O)Nc1ccccc1F (centres unmarked) [Compound 307]
10: Plant response rating, Blackgrass [6, 26]
80: Plant response rating, Barnyardgrass [1, 14] | Plant response rating, Foxtail, Giant [2, 13] | Plant response rating, Foxtail, Giant [2, 14]
95: Plant response rating (scale of 0 to 100), Foxtail, Giant ([7]; Preemergence, 250 g ai/ha)
0: Plant response rating, Pigweed [3, 12] | Plant response rating, Pigweed [3, 13] | Plant response rating, Pigweed [3, 14] | Pigweed plant response rating [3, 15] | Plant response rating, Corn [4, 16] | Plant response rating, Rice [5] | Blackgrass plant response rating [6, 22] | Blackgrass plant response rating [6, 23] | Johnsongrass plant response rating [8, 22] | Johnsongrass plant response rating [8, 23] | Plant response rating, Johnsongrass [8, 26] | Nutsedge, Yellow plant response rating [9, 22] | Nutsedge, Yellow plant response rating [9, 23] | Plant response rating, Nutsedge, Yellow [9, 26] | Plant response rating (scale of 0 to 100), Nutsedge, Yellow ([9]; Preemergence, 250 g ai/ha) | Oilseed Rape plant response rating [10, 22] | Oilseed Rape plant response rating [10, 23] | Plant response rating, Oilseed Rape [10, 26] | Velvetleaf plant response rating [11, 23] | Plant response rating, Velvetleaf [11, 26] | Plant response rating (scale of 0 to 100), Velvetleaf ([11]; Preemergence, 250 g ai/ha)
70: Plant response rating, Barnyardgrass [1, 12] | Plant response rating, Foxtail, Giant [2, 12]
85: Foxtail, Giant plant response rating [7, 23] | Plant response rating, Foxtail, Giant [7, 26]
65: Foxtail, Giant plant response rating [7, 22]
90: Plant response rating, Barnyardgrass [1, 13] | Barnyardgrass plant response rating [1, 15] | Foxtail, Giant plant response rating [2, 15]
45: Plant response rating (scale of 0 to 100), Johnsongrass ([8]; Preemergence, 250 g ai/ha)
60: Plant response rating, Corn [4, 17]
5: Plant response rating (scale of 0 to 100), Blackgrass ([6]; Preemergence, 250 g ai/ha) | Plant response rating (scale of 0 to 100), Oilseed Rape ([10]; Preemergence, 250 g ai/ha)
